Test results as given in patent publication US9034398B2, “Traditional Chinese drug comprising Danshen extracts and Sanqi extracts and use thereof” (TASLY Pharmaceutical Group Co., LTD., priority 2009, dated 2015).

Legend:
[1] = system: rat myocardial I/R model; experiment: Myocardial infarction area by TTC staining; format: in vivo; conditions: for infarction region on TTC-stained heart slices, in contrast to I/R group / inhibition of the increase of the myocardial infarction area percentage caused by I/R: 5 mg/kg BW/h intravenous drip, 60 min after reperfusion, FIG. 6A
Protocol: The rats were anesthetized by intramuscularly injecting 20 wt % urethane (1.25 g/kg) and fixed in the supine position. Neck skin was incised and anterior cervical muscles were separated to expose the trachea. Tracheal intubation was performed. Another end of the intubation was attached to a Small Animal Ventilator (ALC-V8, Shanghai Aoteshai Biology Science and Technology Limited Company, Shanghai, China) so as to carry out pressure breathing under the following conditions: a respiratory ratio of 1:1, a respiratory frequency of 75 times/min and a tidal volume of 12 mL/kg. The rectal temperature, measured with YSI REF 401 (Yellow Spring, Ohio, USA), was maintained at 37 37.5° C. by using a thermal blanket. The chest was sterilized and opened at the intercostal space between 2nd 4th ribs near the left and right sternal border to expose the heart. The 3⁄8 curved needle threaded with 3-0 suture was used to pass through the site at 1 2 mm below the juncture of the pulmonary artery cone and the left atrial appendage. The suture was ligated. A polyethylene tubule was placed between the silk suture and myocardial tissue, the silk suture was […] to cause ischemia. Ligature was released 30 min later to establish an I/R model. Danshensu+I/R group (DLA+I/R group): a Danshensu aqueous solution (in normal saline, 1.25 mg/ml) was administrated at a dosage of 5 mg/kg BW/h by intravenous drip 20 min before the experiment and continued until the end of the entire experiment. Notoginsenoside R1+I/R group (R1+I/R group): a Notoginsenoside R1 aqueous solution (in normal saline, 1.25 mg/ml) was administrated at a dosage of 5 mg/kg BW/h by intravenous drip 20 min before the experiment and continued until the end of the entire experiment. Danshensu:R1(4:1)+I/R group (DR(4:1)+I/R group): an aqueous solution of Danshensu and Notoginsenoside R1 at a weight ratio of 4:1, dissolved in normal saline (1.25 mg/ml, namely, in the solution, the concentration of Danshensu is 1 mg/ml and the concentration of Notoginsenoside R1 is 0.25 mg/ml), was administrated at a dosage of 5 mg/kg BW/h (namely, in the total dosage, the dosage of Danshensu is 4 mg/kg BW/h and the dosage of Notoginsenoside R1 is 1 mg/kg BW/h) by intravenous drip 20 min before the experiment and continued until the end of the entire experiment. Danshensu:R1 (1:1)+I/R group (DR(1:1)+IR group): an aqueous solution of Danshensu and Notoginsenoside R1 at a weight ratio of 1:1, dissolved in normal saline (1.25 mg/ml, namely, in the solution, the concentration of Danshensu is 0.625 mg/ml and the concentration of Notoginsenoside R1 is 0.625 mg/ml), was administrated at a dosage of 5 mg/kg BW/h (namely, in the total dosage, the dosage of Danshensu is 2.5 mg/kg BW/h and the dosage of Notoginsenoside R1 is 2.5 mg/kg BW/h) by intravenous drip 20 min before the experiment and continued until the end of the entire experiment. Danshensu:R1 (0.25:1)+I/R group (DR(0.25:1)+IR group): an aqueous solution of Danshensu and Notoginsenoside R1 at a weight ratio of 0.25:1, dissolved in normal saline (1.25 mg/ml, namely, in the solution, the concentration of Danshensu is 0.25 mg/ml and the concentration of Notoginsenoside R1 is 1.0 mg/ml), was administrated at a dosage of 5 mg/kg BW/h (namely, in the total dosage, the dosage of Danshensu is 1 mg/kg BW/h and the dosage of Notoginsenoside R1 is 4 mg/kg BW/h) by intravenous drip 20 min before the experiment and continued until the end of the entire experiment. […]

[2] = system: rat myocardial I/R model; experiment: FITC-labeled plasma albumin leakage from the venules of heart coronary vessels; format: in vivo; conditions: 5 mg/kg BW/h intravenous drip, 60 min after reperfusion; for FITC-labeled albumin leakage from the venules of the coronary vessels (images): FIG. 3A; for inhibitory effect on FITC-labeled albumin leakage (ratio of fluorescence intensity outside to inside the venules): FIG. 3B
Protocol: The rats were anesthetized by intramuscularly injecting 20 wt % urethane (1.25 g/kg) and fixed in the supine position. Neck skin was incised and anterior cervical muscles were separated to expose the trachea. Tracheal intubation was performed. Another end of the intubation was attached to a Small Animal Ventilator (ALC-V8, Shanghai Aoteshai Biology Science and Technology Limited Company, Shanghai, China) so as to carry out pressure breathing under the following conditions: a respiratory ratio of 1:1, a respiratory frequency of 75 times/min and a tidal volume of 12 mL/kg. The rectal temperature, measured with YSI REF 401 (Yellow Spring, Ohio, USA), was maintained at 37 37.5° C. by using a thermal blanket. The chest was sterilized and opened at the intercostal space between 2nd 4th ribs near the left and right sternal border to expose the heart. The 3⁄8 curved needle threaded with 3-0 suture was used to pass through the site at 1 2 mm below the juncture of the pulmonary artery cone and the left atrial appendage. The suture was ligated. A polyethylene tubule was placed between the silk suture and myocardial tissue, the silk suture was […] to cause ischemia. Ligature was released 30 min later to establish an I/R model. Danshensu+I/R group (DLA+I/R group): a Danshensu aqueous solution (in normal saline, 1.25 mg/ml) was administrated at a dosage of 5 mg/kg BW/h by intravenous drip 20 min before the experiment and continued until the end of the entire experiment. Notoginsenoside R1+I/R group (R1+I/R group): a Notoginsenoside R1 aqueous solution (in normal saline, 1.25 mg/ml) was administrated at a dosage of 5 mg/kg BW/h by intravenous drip 20 min before the experiment and continued until the end of the entire experiment. Danshensu:R1(4:1)+I/R group (DR(4:1)+I/R group): an aqueous solution of Danshensu and Notoginsenoside R1 at a weight ratio of 4:1, dissolved in normal saline (1.25 mg/ml, namely, in the solution, the concentration of Danshensu is 1 mg/ml and the concentration of Notoginsenoside R1 is 0.25 mg/ml), was administrated at a dosage of 5 mg/kg BW/h (namely, in the total dosage, the dosage of Danshensu is 4 mg/kg BW/h and the dosage of Notoginsenoside R1 is 1 mg/kg BW/h) by intravenous drip 20 min before the experiment and continued until the end of the entire experiment. […] Under an upright fluorescence microscope (USS-301, Leica, US), fluorescence image of each group was recorded with SIT camera by using a light at 455 nm as an exciting light and a mercury lamp (100 W) as an emission source. FITC fluorescence intensities inside the venules and the adjacent extravascular interstitial substance were measured with Image-Pro Plus 5.0 software, respectively. […]

| SMILES | infarction region on TTC-stained heart slices, in contrast to I/R group [1] | inhibition of the increase of the myocardial infarction area percentage caused by I/R [1] | FITC-labeled albumin leakage from the venules of the coronary vessels (images) [2] | inhibitory effect on FITC-labeled albumin leakage (ratio of fluorescence intensity outside to inside the venules) [2] | reduction of the percentage of the myocardial infarction area after I/R (summary) ([1]; rats, summary statement of the description) |
| --- | --- | --- | --- | --- | --- |
| CC(C)=CCC[C@](C)(O[C@@H]1O[C@H](CO)[C@@H](O)[C@H](O)[C@H]1O)[C@H]1CC[C@]2(C)[C@@H]1[C@H](O)C[C@@H]1[C@@]3(C)CC[C@H](O)C(C)(C)[C@@H]3[C@@H](O[C@@H]3O[C@H](CO)[C@@H](O)[C@H](O)[C@H]3O[C@@H]3OC[C@@H](O)[C@H](O)[C@H]3O)C[C@]12C [Notoginsenoside R1] | decreased slightly | has not significantly inhibited | can also be observed | Significant inhibitory effect on FITC-labeled albumin leakage has not been observed | – |
| O=C(O)C(O)Cc1ccc(O)c(O)c1 (stereo not drawn) [Danshensu, (3,4-dihydroxyphenyl)lactic acid] | decreased obviously | significantly suppress | can also be observed | Significant inhibitory effect on FITC-labeled albumin leakage has not been observed | can reduce |
